pIC50: −log10 of the molar value. Counter-ions that a name gives are not always drawn.
Legend:
human RORγt = target: T1, human RORγt (Homo sapiens, UniProt P51449); assay: RORE Luciferase/RORγt transactivation assay; assay type: cell-based; conditions: COS-7 cells transfected with human IL-17 promoter luciferase reporter and RORγt plasmid; 20 h with compound; read-out: IC50, RORγt activity inhibition
T1 construct: the full-length cDNA of human RORγt; expressed in transfected cells; host or cells: COS-7 (monkey kidney)
T1 sequence (P51449 1-497 isoform P51449-2): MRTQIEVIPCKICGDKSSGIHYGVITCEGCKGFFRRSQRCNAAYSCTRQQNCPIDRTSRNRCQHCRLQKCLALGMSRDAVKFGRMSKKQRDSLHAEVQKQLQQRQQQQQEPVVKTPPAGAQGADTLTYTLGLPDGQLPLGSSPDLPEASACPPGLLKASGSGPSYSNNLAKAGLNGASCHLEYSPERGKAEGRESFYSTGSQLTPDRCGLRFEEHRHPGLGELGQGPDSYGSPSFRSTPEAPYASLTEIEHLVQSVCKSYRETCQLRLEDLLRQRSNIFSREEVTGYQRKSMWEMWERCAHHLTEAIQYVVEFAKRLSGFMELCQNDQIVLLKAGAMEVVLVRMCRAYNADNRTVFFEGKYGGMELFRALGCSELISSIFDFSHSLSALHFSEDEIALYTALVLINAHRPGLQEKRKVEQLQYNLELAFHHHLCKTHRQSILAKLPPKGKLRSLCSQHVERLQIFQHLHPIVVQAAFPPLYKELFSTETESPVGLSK
In short: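 Transactivation read-out: luminescence (Steady-Glo, 30 min at room temperature) from COS-7 cells carrying a RORγt expression plasmid plus a 4.3 kb IL-17 promoter luciferase reporter. Compound exposure was in serum-free DMEM with 0.3% DMSO final. Reported values are IC50 (μM) and Emax (%).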

[1] = tested on: Murine EL-4 lymphoma cell line overexpressing human RORγt; assay: IL-17 secretion from EL4 murine lymphoma; assay type: cell-based; conditions: Mus musculus; human RORγt-transfected EL4 cells, PMA (10 ng/mL) and ionomycin (1 μM), 24 h; read-out: IC50, IL-17 secretion inhibition
Experimental: Murine EL-4 lymphoma cell line overexpressing human RORγt was used in this functional assay to assess compound ability to inhibit IL-17 cytokine secretion.
EL-4 cells are maintained in a standard culture medium RPMI supplemented with 10% fetal calf serum, 1% sodium pyruvate, 1% essential amino acids and 1% antibiotics at 37° C. in a humidified atmosphere of 5% CO02 and 95% air. Culture medium was changed every 2 days. EL4 cells were transfected with a plasmid encoding hRORγt (sequence identical to published sequence NM 001001523). […] Briefly, 1 μg of DNA/1 million cells was served to transfect EL-4 cells. Cell/DNA suspension was transferred into certified cuvette and the electroporation of RORγt plasmid was carried out using appropriate Nucleofector® program.
Cells were seeded in 96 well plates at a density of 150000 cells/I well then treated with compounds of this invention at indicated concentrations and incubated for 24 hours at 37° C. in a humidified atmosphere of 5% C02 and 95% air. EL-4 cells were pretreated with test compounds (RORγ modulators) and stimulated with PMA (10 ng/mL) and ionomycin (1 μM final concentration) in the presence of test compound concentrations for additional 24 h at 37° C. in a humidified atmosphere of 5% C02 and 95% air. Subsequently, supernatants were collected (after centrifugation at 300 g for 10 minutes) to determine the concentrations of IL-17 by HTRF (CisBio, France) or ELISA (R&D Systems Europe) according to the manufacturer's protocols.

| pIC50 (human RORγt) | pIC50 [1] | melting point [°C] | Compound |
| --- | --- | --- | --- |
| 6.00 to 7.00 | 6.00 to 7.00 |  | Cc1ccc(C(NC(=O)Cc2ccc3c(c2)OCC(=O)N3)c2ccc(C)o2)c(C)c1 (stereo not shown) [Cpd. 33, N-[(2,4-dimethylphenyl)(5-methylfuran-2-yl)methyl]-2-(3-oxo-3,4-dihydro-2H-1,4-benzoxazin-7-yl)acetamide] |
| 7.00 to 8.00 | 6.00 to 7.00 |  | Cc1ccc(C(NC(=O)C2(c3ccc4c(c3)CN(S(C)(=O)=O)C4)CC2)c2ccc(C)o2)c(N(C)C)c1 (stereo not shown) [Cpd. 76, N-{[2-(dimethylamino)-4-methylphenyl](5-methylfuran-2-yl)methyl}-1-(2-methanesulfonyl-2,3-dihydro-1H-isoindol-5-yl)cyclopropane-1-carboxamide] |
| 5.00 to 6.00 | 5.00 to 6.00 |  | COc1ccc(C(NC(=O)Cc2ccc3[nH]c(=O)cc(C)c3c2)c2ccccc2)c(N2CCCCC2)c1 (stereo not shown) [Cpd. 10, N-{[4-methoxy-2-(piperidin-1-yl)phenyl](phenyl)methyl}-2-(4-methyl-2-oxo-1,2-dihydroquinolin-6-yl)acetamide] |
| 7.00 to 8.00 | > 7.00 |  | Cc1ccc(C(NC(=O)Cc2ccc3[nH]cc(C(=O)N4CCOCC4)c3c2)c2ccc(C)o2)c(N2CCCCC2)c1 (stereo not shown) [Cpd. 120, N-{[4-methyl-2-(piperidin-1-yl)phenyl](5-methylfuran-2-yl)methyl}-2-[3-(morpholine-4-carbonyl)-1H-indol-5-yl]acetamide] |
| 7.00 to 8.00 | 6.00 to 7.00 |  | Cc1ccc(C(NC(=O)Cc2ccc3c(c2)CN(S(C)(=O)=O)C3)c2ccc(Cl)o2)c(N2CCCCC2)c1 (stereo not shown) [Cpd. 79, N-[(5-chlorofuran-2-yl)[4-methyl-2-(piperidin-1-yl)phenyl]methyl]-2-(2-methanesulfonyl-2,3-dihydro-1H-isoindol-5-yl)acetamide] |
| 7.00 to 8.00 | > 7.00 |  | Cc1ccc(C(NC(=O)Cc2ccc3[nH]cc(C(=O)CS(C)(=O)=O)c3c2)c2ccc(C)o2)c(N2CCCCC2)c1 (stereo not shown) [Cpd. 103, 2-[3-(2-methanesulfonylacetyl)-1H-indol-5-yl]-N-{[4-methyl-2-(piperidin-1-yl)phenyl](5-methylfuran-2-yl)methyl}acetamide] |
| 7.00 to 8.00 | > 7.00 |  | Cc1ccc(C(NC(=O)Cc2ccc3c(c2)OCC(=O)N3)c2ccc(C)o2)c(N2CCCCC2)c1 (stereo not shown) [Cpd. 35, N-{[4-methyl-2-(piperidin-1-yl)phenyl](5-methylfuran-2-yl)methyl}-2-(3-oxo-3,4-dihydro-2H-1,4-benzoxazin-7-yl)acetamide] |
| 7.00 to 8.00 |  | 57 | Cc1ccc(C(NC(=O)C2(c3ccc4c(c3)CCN4)CC2)c2ccc(C)o2)c(C)c1 (stereo not shown) [Cpd. 142, 1-(2,3-dihydro-1H-indol-5-yl)-N-[(2,4-dimethylphenyl)(5-methylfuran-2-yl)methyl]cyclopropane-1-carboxamide] |
|  | 6.00 to 7.00 |  | Cc1ccc(C(NC(=O)Cc2ccc3c(c2)/C(=N/N)C(=O)N3)c2ccc(C)o2)c(N2CCCCC2)c1 (stereo not shown) [Cpd. 84, 2-[(3Z)-3-hydrazinylidene-2-oxo-2,3-dihydro-1H-indol-5-yl]-N-{[4-methyl-2-(piperidin-1-yl)phenyl](5-methylfuran-2-yl)methyl}acetamide] |
| 7.00 to 8.00 |  | 102 | Cc1ccc(C(NC(=O)Cc2ccc3c(c2)C(C)C(=O)N3)c2ccc(C)o2)c(N2CCCCC2)c1 (stereo not shown) [Cpd. 49, N-{[4-methyl-2-(piperidin-1-yl)phenyl](5-methylfuran-2-yl)methyl}-2-(3-methyl-2-oxo-2,3-dihydro-1H-indol-5-yl)acetamide] |
|  |  | 68 | Cc1ccc(C(NC(=O)C2(c3ccc4c(c3)CN(S(C)(=O)=O)C4)CC2)c2ccc(Cl)o2)c(C)c1 (stereo not shown) (as salt: HCl) [Cpd. 56, N-[(5-chlorofuran-2-yl)(2,4-dimethylphenyl)methyl]-1-(2-methanesulfonyl-2,3-dihydro-1H-isoindol-5-yl)cyclopropane-1-carboxamide] |
|  |  | 83 | Cc1ccc(C(NC(=O)Cc2ccc3c(ccn3S(C)(=O)=O)c2)c2ccc(C)o2)c(N2CCCCC2)c1 (stereo not shown) (as salt: ammonium) [Cpd. 106, 2-(1-methanesulfonyl-1H-indol-5-yl)-N-{[4-methyl-2-(piperidin-1-yl)phenyl](5-methylfuran-2-yl)methyl}acetamide] |
|  |  | 99 | Cc1ccc(C(NC(=O)C2(c3ccc4c(c3)OCC(=O)N4)CC2)c2ccc(Cl)cc2)c(C)c1 (stereo not shown) (as salt: HCl) [Cpd. 140, N-[(4-chlorophenyl)(2,4-dimethylphenyl)methyl]-1-(3-oxo-3,4-dihydro-2H-1,4-benzoxazin-7-yl)cyclopropane-1-carboxamide] |
|  |  | 75 | Cc1ccc(C(NC(=O)Cc2ccc3c(c2)C(C)(C)C(=O)N3C)c2ccc(C)o2)c(N2CCCCC2)c1 (stereo not shown) (as salt: HCl) [Cpd. 40, N-{[4-methyl-2-(piperidin-1-yl)phenyl](5-methylfuran-2-yl)methyl}-2-(1,3,3-trimethyl-2-oxo-2,3-dihydro-1H-indol-5-yl)acetamide] |
|  |  | 80 | Cc1ccc(C(NC(=O)Cc2ccc3[nH]cc(CCO)c3c2)c2ccc(C)o2)c(N2CCCCC2)c1 (stereo not shown) (as salt: HCl) [Cpd. 57, 2-[3-(2-hydroxyethyl)-1H-indol-5-yl]-N-{[4-methyl-2-(piperidin-1-yl)phenyl](5-methylfuran-2-yl)methyl}acetamide] |
|  |  | 84 | Cc1ccc(C(NC(=O)C2(c3ccc4c(n3)OCC(=O)N4)CC2)c2ccc(C)o2)c(C)c1 (stereo not shown) (as salt: HCl) [Cpd. 144, N-[(2,4-dimethylphenyl)(5-methylfuran-2-yl)methyl]-1-{2-oxo-1H,2H,3H-pyrido[2,3-b][1,4]oxazin-6-yl}cyclopropane-1-carboxamide] |
|  |  | 107 | Cc1ccc(C(NC(=O)C2(c3ccc4c(c3)CS(=O)(=O)N4)CC2)c2ccc(C)o2)c(N(C)C)c1 (stereo not shown) (as salt: HCl) [Cpd. 71, N-{[2-(dimethylamino)-4-methylphenyl](5-methylfuran-2-yl)methyl}-1-(2,2-dioxo-1,3-dihydro-2,1-benzothiazol-5-yl)cyclopropane-1-carboxamide] |
|  |  | 68 | CCN1c2ccc(C3(C(=O)NC(c4ccc(C)o4)c4ccc(C)cc4C)CC3)cc2CS1(=O)=O (stereo not shown) (as salt: HCl) [Cpd. 132, N-[(2,4-dimethylphenyl)(5-methylfuran-2-yl)methyl]-1-(1-ethyl-2,2-dioxo-1,3-dihydro-2,1-benzothiazol-5-yl)cyclopropane-1-carboxamide] |
|  |  | 85 | Cc1ccc(C(NC(=O)C2(c3ccc4c(c3)CC(=O)N4)CC2)c2ccc(C)o2)c(C)c1 (stereo not shown) (as salt: HCl) [Cpd. 61, N-[(2,4-dimethylphenyl)(5-methylfuran-2-yl)methyl]-1-(2-oxo-2,3-dihydro-1H-indol-5-yl)cyclopropane-1-carboxamide] |
|  |  | 68 | Cc1ccc(C(NC(=O)C2(c3ccc4c(c3)CCC4=NO)CC2)c2ccc(C)o2)c(C)c1 (stereo not shown) (as salt: HCl) [Cpd. 165, N-[(2,4-dimethylphenyl)(5-methylfuran-2-yl)methyl]-1-[1-(hydroxyimino)-2,3-dihydro-1H-inden-5-yl]cyclopropane-1-carboxamide] |
|  |  | 82 | Cc1ccc(C(NC(=O)C2(c3ccc4c(c3)CN(S(C)(=O)=O)C4)CC2)c2ccc(Cl)o2)c(N2CCCC2)c1 (stereo not shown) (as salt: HCl) [Cpd. 80, N-[(5-chlorofuran-2-yl)[4-methyl-2-(pyrrolidin-1-yl)phenyl]methyl]-1-(2-methanesulfonyl-2,3-dihydro-1H-isoindol-5-yl)cyclopropane-1-carboxamide] |
|  |  | 75 | CC(=O)N1CCc2cc(C3(C(=O)NC(c4ccc(C)o4)c4ccc(C)cc4C)CC3)ccc21 (stereo not shown) (as salt: HCl) [Cpd. 126, 1-(1-acetyl-2,3-dihydro-1H-indol-5-yl)-N-[(2,4-dimethylphenyl)(5-methylfuran-2-yl)methyl]cyclopropane-1-carboxamide] |

From patent US11052092B2, “N-{[2-(piperidin-1-yl)phenyl](phenyl)methyl}-2-(3-oxo-3,4-dihydro-2H-1,4-benzoxazin-7-yl)acetamide derivatives and related compounds as ROR-gamma modulators for treating autoimmune diseases” (Genfit, priority 2017, dated 2021)
